Reference: patent US20220073496A1, “NOVEL QUINOLINE DERIVATIVE INHIBITOR” (Nanjing Transthera Biosciences Co., Ltd., priority 2018, published 2022)

Tests used:
[1] = Stability in liver microsome of mice; type: in vitro ADME; conditions: Mouse liver microsome 0.5 mg protein/mL, compound 1 μM, 37° C.; for half-life at 1 μM / microsomal CLint at 1 μM: liver microsomes
Description: Assay 1: Stability assessment of the compounds of the present invention in liver microsome of mice and dogs
(§1) Test substances: the compounds of the present invention, wherein the structures and preparations thereof were as described above.
The composition of the incubation system:
Preparation of Test Substances:
An appropriate amount of the compound was accurately weighed and dissolved in DMSO to prepare a 5.0 mM stock solution. The 5.0 mM stock solution was diluted to 1.0 mM with DMSO, and finally diluted with water to a 10 μM test substance working solution for use (the DMSO content in the reaction system was 0.1%).
(1) The liver microsome (20 mg protein/mL) was taken out from the −80° C. refrigerator, pre-incubated at 37° C. with a water-bathing constant temperature vibrator for 3 minutes, and melted for use.
(2) A mixed solution of the incubation system (excluding compounds and β-NADPH) according to the above “composition of the incubation system” for the assay was prepared, and pre-incubated at 37° C. with a water-bathing constant temperature vibrator for 2 minutes.
(3) Control group (excluding β-NADPH): 30 μL of water and 30 μL of compound working solution (10 μM) were added to 240 μL of the mixed solution of the incubation system of step (2), and vortexed for 30 seconds to mix well. The total reaction volume was 300 μL. A duplicate sample was prepared. The sample was incubated at 37° C. with a water-bathing constant temperature vibrator. The timekeeping began and the sampling time points were set at 0 minute and 60 minutes.
(4) Sample group: 70 μL of β-NADPH solution (10 mM) and 70 μL of compound working solution (10 μM) were added to 560 μL of the mixed solution of step (2). The total reaction volume was 700 μL. The resulting mixture was vortexed for 30 seconds to mix well. A duplicate sample was prepared. The sample was incubated at 37° C. with a water-bathing constant temperature vibrator. The timekeeping began and the sampling time points were set at 0 minute, 5 minutes, 10 minutes, 20 minutes, 30 minutes, and 60 minutes after timekeeping.
(5) After vortexing for 3 minutes, the sample was centrifuged at 4000 rpm for 10 minutes.
(6) 50 μL of the supernatant was taken and 150 μL of water was added. The resulting mixture was vortexed to mix well, and analyzed by LC/MS/MS.
The half-life (t1/2) and clearance rate (Cl) were calculated using the following first-order kinetic formula:
Vd=1/protein content in liver microsome
Note: k was the slope of the logarithm of the remaining amount of the compound versus time, and Vd was the apparent distribution volume.

Mer (h) = target: T1, Mer (h) (Homo sapiens, UniProt Q12866); test: Enzymatic activity test, Mer (h); type: biochemical; conditions: 10 μM [γ-33P]-ATP, 40 minutes, room temperature
T1 construct: purchased
T1 sequence (Q12866 21-999): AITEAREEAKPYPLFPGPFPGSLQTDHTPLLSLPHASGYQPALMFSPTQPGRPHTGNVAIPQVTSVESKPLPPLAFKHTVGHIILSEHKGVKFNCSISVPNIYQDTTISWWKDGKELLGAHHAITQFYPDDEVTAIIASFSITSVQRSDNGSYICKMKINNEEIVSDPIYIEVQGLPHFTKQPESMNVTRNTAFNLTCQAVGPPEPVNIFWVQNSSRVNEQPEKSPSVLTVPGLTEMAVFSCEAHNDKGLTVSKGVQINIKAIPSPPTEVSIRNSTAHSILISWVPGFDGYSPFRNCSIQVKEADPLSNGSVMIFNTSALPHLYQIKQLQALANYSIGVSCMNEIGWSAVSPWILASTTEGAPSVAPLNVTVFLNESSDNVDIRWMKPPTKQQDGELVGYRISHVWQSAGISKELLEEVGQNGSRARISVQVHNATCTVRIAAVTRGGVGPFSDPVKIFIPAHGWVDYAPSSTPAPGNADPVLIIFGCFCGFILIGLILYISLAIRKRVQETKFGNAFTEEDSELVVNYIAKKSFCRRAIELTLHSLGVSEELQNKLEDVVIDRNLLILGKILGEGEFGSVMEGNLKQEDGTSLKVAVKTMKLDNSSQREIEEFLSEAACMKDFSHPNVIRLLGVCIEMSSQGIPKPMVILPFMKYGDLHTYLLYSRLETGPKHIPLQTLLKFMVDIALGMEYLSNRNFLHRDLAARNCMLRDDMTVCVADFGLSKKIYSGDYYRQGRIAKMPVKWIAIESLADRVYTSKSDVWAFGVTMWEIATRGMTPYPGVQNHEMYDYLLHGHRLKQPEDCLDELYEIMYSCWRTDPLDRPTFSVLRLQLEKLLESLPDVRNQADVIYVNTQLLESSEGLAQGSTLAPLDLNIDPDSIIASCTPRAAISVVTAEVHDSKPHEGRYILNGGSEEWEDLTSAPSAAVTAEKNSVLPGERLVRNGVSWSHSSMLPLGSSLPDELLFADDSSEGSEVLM
Description: Assay 3: Enzymatic Activity Test of the Compounds of the Present Invention
as §1
(1) Preparation of the Compound Stock Solution
The compound was dissolved in 100% DMSO to prepare a stock solution with a maximum concentration of 500 μM.
(2) Preparation of the Compound Working Solution
The compound stock solution was diluted to final concentrations of 500, 150, 50, 15, 5, 1.5, 0.5, 0.15 and 0.05 μM to become the compound working solutions (50×).
(3) Preparation of Different Enzyme Reaction Solutions
The Mer (h) enzyme was dissolved in 8 mM MOPS (pH 7.0), 0.2 mM EDTA, 30 mM NaCl, and 250 μM GGMEDIYFEFIVIGGKKK to prepare an enzyme solution having a final concentration of 3.1 nM. The enzymatic reaction was activated by using 10 mM magnesium acetate and 10 μM [γ-^33P]-ATP to form an Mg/ATP mixed solution.
In a 384-well plate, the compound working solution was added to final concentrations of 10000, 3000, 1000, 300, 100, 30, 10, 3, and 1 nM. Then different enzyme reaction solutions prepared according to the above conditions were added. The incubation was carried out for 40 minutes at room temperature. The test was terminated by the addition of a 0.5% phosphoric acid solution. 10 μL of the reaction solution was taken and dropped to the P30 filter paper. The filter paper was washed 4 times with 0.425% phosphoric acid solution and once with methanol, and then placed on a scintillation counter. The […] IC50 values were calculated using GraphPad 5.0 software.

Row | SMILES | half-life at 1 μM [1] | microsomal CLint at 1 μM [1] | IC50 (Mer (h)) | t1/2 [1]
1 | COc1cc2nccc(Oc3ccc(NC(=O)c4cn(C(C)C)cc(-c5ccc(C)cc5)c4=O)nc3)c2cc1OC [Compound 1, N-(5-((6,7-dimethoxyquinolin-4-yl)oxy)pyridin-2-yl)-1-isopropyl-4-oxo-5-p-tolyl-1,4-dihydropyridin-3-carboxamide] | 1.27 h | 18.2 µL/min/mg | 2 nM | –
2 | COc1cc2nccc(Oc3ccc(NC(=O)c4cn(C(C)C)cc(-c5ccc(F)cc5)c4=O)nc3)c2cc1OC [Compound 14, N-(5-((6,7-dimethoxyquinolin-4-yl)oxy)pyridin-2-yl)-5-(4-fluorophenyl)-1-isopropyl-4-oxo-1,4-dihydropyridin-3-carboxamide] | 3.12 h | 7.4 µL/min/mg | 2 nM | –
3 | COc1cc2nccc(Oc3ccc(NC(=O)c4nn(C(C)C)cc(-c5ccc(F)cc5)c4=O)nc3)c2cc1OC [Compound 15, N-(5-((6,7-dimethoxyquinolin-4-yl)oxy)pyridin-2-yl)-5-(4-fluorophenyl)-1-isopropyl-4-oxo-1,4-dihydropyridazine-3-carboxamide] | 6.42 h | 3.6 µL/min/mg | < 1 nM | –
4 | COc1cc2nccc(Oc3cnc(NC(=O)c4nn(C(C)C)cc(-c5ccc(F)cc5)c4=O)nc3)c2cc1OC [Compound 16, N-(5-((6,7-dimethoxyquinolin-4-yl)oxy)pyrimidine-2-yl)-5-(4-fluorophenyl)-1-isopropyl-4-oxo-1,4-dihydropyridazine-3-carboxamide] | 1.63 h | 14.2 µL/min/mg | 2 nM | –
5 | COc1cc2nccc(Oc3cnc(NC(=O)c4cn(C(C)C)cc(-c5ccc(F)cc5)c4=O)nc3)c2cc1OC [Compound 20, N-(5-((6,7-dimethoxyquinolin-4-y)oxy)pyrimidine-2-yl)-5-(4-fluorophenyl)-1-isopropyl-4-oxo-1,4-dihydropyridin-3-carboxamide] | 5.5 h | 4.2 µL/min/mg | 3 nM | –
6 | COc1cc2nccc(Oc3ccc(NC(=O)c4nn(C(C)C)cc(-c5ccc(F)cc5)c4=O)cn3)c2cc1OC [Compound 29, N-(6-((6,7-dimethoxyquinolin-4-yl)oxy)pyridin-3-yl)-1-isopropyl-4-oxo-5-para-fluorophenyl-1,4-dihydropyridazine-3-carboxamide] | 3.22 h | 7.2 µL/min/mg | 1 nM | –
7 | COc1cc2nccc(Oc3ccc(NC(=O)c4cn(C5CC5)cc(-c5ccc(F)cc5)c4=O)nc3)c2cc1OC [Compound 30, N-(5-((6,7-dimethoxyquinolin-4-yl)oxy)pyridin-2-yl)-1-cyclopropyl-4-oxo-5-para-fluorophenyl-1,4-hydropyridin-3-carboxamide] | 0.888 h | 26 µL/min/mg | < 1 nM | –
8 | COc1cc2nccc(Oc3ccc(NC(=O)c4nn(C5CC5)cc(-c5ccc(F)cc5)c4=O)nc3)c2cc1OC [Compound 31] | 14.4 h | 1.6 µL/min/mg | < 1 nM | –
9 | COc1cc2nccc(Oc3cnc(NC(=O)c4cn(C5CC5)cc(-c5ccc(F)cc5)c4=O)nc3)c2cc1OC [Compound 32, 1-cyclopropyl-N-(5-((6,7-dimethoxyquinolin-4-yl)oxy)pyrimidine-2-yl)-5-(4-fluorophenyl)-4-oxo-1,4-dihydropyridin-3-carboxamide] | 4.13 h | 5.6 µL/min/mg | 2 nM | –
10 | COc1cc2nccc(Oc3cnc(NC(=O)c4nn(C5CC5)cc(-c5ccc(F)cc5)c4=O)nc3)c2cc1OC [Compound 33] | 2.75 h | 8.4 µL/min/mg | < 1 nM | –

Continued, values first:

Row | half-life at 1 μM [1] | microsomal CLint at 1 μM [1] | IC50 (Mer (h)) | t1/2 [1] | SMILES
11 | – | – | 3 nM | – | COc1cc2nccc(Oc3ccc(NC(=O)c4cn(C(C)C)nc(-c5ccc(F)cc5)c4=O)cn3)c2cc1OC [Compound 38, N-(6-((6,7-dimethoxyquinolin-4-yl)oxy)pyridin-3-yl)-6-para-fluorophenyl-2-isopropyl-5-oxo-2,5-dihydropyridazine-4-carboxamide]
12 | – | – | 2 nM | – | COc1cc2nccc(Oc3ccc(NC(=O)c4cn(C(C)C)nc(-c5ccc(F)cc5)c4=O)nc3)c2cc1OC [Compound 41, N-(5-((6,7-dimethoxyquinolin-4-yl)oxy)pyridin-2-yl)-6-(4-fluorophenyl)-2-isopropyl-5-oxo-2,5-dihydropyridazine-4-carboxamide]
13 | – | – | – | →∞ | COc1cc2nccc(Oc3ccc(NC(=O)c4cn(C5CC5)nc(-c5ccc(F)cc5)c4=O)nc3)c2cc1OC [Compound 42, 2-cyclopropyl-N-(5--((6,7-dimethoxyquinolin-4-yl)oxy)pyridin-2-yl)-6-(4-fluorophenyl)-5-oxo-2,5-dihydropyridazine-4-carboxamide]
14 | 10.5 h | 2.2 µL/min/mg | – | – | COc1cc2nccc(Oc3ccc(NC(=O)c4cn(C5CC5)nc(-c5ccc(F)cc5)c4=O)cn3)c2cc1OC [Compound 43, 2-cyclopropyl-N-(6-((6,7-dimethoxyquinolin-4-yl)oxy)pyridin-3-yl)-6-para-fluorophenyl-5-oxo-2,5-dihydropyridazine-4-carboxamide]
15 | 3.3 h | 7 µL/min/mg | – | – | COc1cc2nccc(Oc3cnc(NC(=O)c4cn(C5CC5)nc(-c5ccc(F)cc5)c4=O)nc3)c2cc1OC [Compound 45, 2-cyclopropyl-N-(5-((6,7-dimethoxyquinolin-4-yl)oxy)pyrimidine-2-yl)-6-(4-fluorophenyl)-5-oxo-2,5-dihydropyridazine-4-carboxamide]
16 | – | – | – | →∞ | COc1cc2nccc(Oc3ccc(NC(=O)c4nn(C5CC5)cc(-c5ccc(C)cc5)c4=O)nc3)c2cc1OC [Compound 46, 1-cyclopropyl-N-(5-((6,7-dimethoxyquinolin-4-yl)oxy)pyridin-2-yl)-4-oxo-5-p-tolyl-1,4-dihydropyridazine-3-carboxamide]
